According to US10004222B2, “Small molecule ice recrystallization inhibitors and methods of use thereof” (THE UNIVERSITY OF OTTAWA, priority 2012, dated 2018):
Where two headings read alike, the source gives them in different places. Non-standard residues stand in square brackets, D forms with d. Residues, ends and D or L forms follow the SMILES beside them. *: point of attachment. X1 = O=C(C[C@H]1OC(CO)[C@H](O)[C@H](O)C1O)*; Orn = NCCC[C@H](N)C(=O)O

Tests used:
[1] = previously demonstrated; cited from earlier work
[2] = previously demonstrated; cited from earlier work; remark: listed apart in the source
[3] = system: human embryonic liver cells; conditions: compared with DMSO; cited from earlier work
[4] = solubility and gelation in water, PBS; format: physicochemical
[5] = thermal hysteresis (TH) activity and dynamic ice shaping, Clifton Nanoliter Osmometer; conditions: 0.01 mg/mL
Description: As both compound 4 (at 22 mM) and compound 5 (at 0.5 mM) are novel potent low molecular weight inhibitors of ice recrystallization, whether they were interacting directly with the ice lattice was investigated. Carbohydrate derivatives (compounds 3-6) were examined for TH activity using a Clifton Nanoliter Osmometer. See Tam, R. et al. (2009) “Solution Conformation of C-Linked Antifreeze Glycoprotein Analogues and Modulation of Ice Recrystallization” J. Am. Chem. Soc. 131:15747-15753; Tam, R. et al. (2008) “Hydration Index—A Better Parameter for Explaining Small Molecule Hydration in Inhibition of Ice Recrystallization” J. Am. Chem. Soc. 130: 17494-17501.
In this assay a single droplet of the sample in water was suspended in the center of an oil-filled well in a sample holder plate. The sample was then rapidly frozen using a thermoelectrically controlled microscope stage, then the temperature was raised and the sample melted until only a single ice crystal remained. Once a single ice crystal was obtained, its growth and behavior upon increasing/decreasing the temperature was viewed under a microscope.
The above synthesized C-linked AFGP analogues and carbohydrate derivatives were assessed for TH activity at 10 mg/mL. Compounds 3-6 could not be assessed for TH activity at this concentration due to their amphiphilic nature. […]

[6] = splat cooling ice recrystallization inhibition (IRI) assay; conditions: 0.5 mM
Description: In this assay, the area of ice crystals are measured after a 30 minute annealing time at −6.4° C. and compared to a positive control for ice recrystallization resulting in a quantitative measurement of the mean ice grain size. For a positive control, a phosphate buffered saline (PBS) solution was utilized. All samples were normalized to the PBS positive control. The ice recrystallization inhibition activity of the carbohydrate-based non-ionic surfactants n-octyl-β-D-glucopyranoside (compound 3) and n-octyl-β-D-galactopyranoside (compound 4) is shown in FIG. 1.
In this assay, the area of ice crystals are measured after a 30 minute annealing time at −6.4° C. and compared to a positive control for ice recrystallization resulting in a quantitative measurement of the mean ice grain size. For a positive control, a PBS solution was utilized. All samples were normalized to the PBS positive control.
N-aryl-D-gluconamides (3a), (2a), (4a), and (1b) are a class of low molecular weight carbohydrate-based compounds. The ice recrystallization inhibition activity of (3a), (2a), (4a), and (1b) was assessed using a “splat cooling” assay. In this assay, the area of ice crystals are measured after a 30 minutes annealing time at −6.4° C. and compared to a positive control for ice recrystallization resulting in a quantitative measurement of the mean ice grain size. For a positive control, PBS was utilized. All samples were normalized to the PBS positive control.

Row | solubility [4] | Structure (SMILES) | ice recrystallization inhibition activity [1] | TH activity [2] | cryoprotective ability [3] | dynamic ice shaping [5] | ice recrystallization inhibition activity [6]
1 |  | N[C@@H](CC[C@H]1OC(CO)[C@H](O)[C@H](O)C1O)C(=O)NCC(=O)NCC(=O)N[C@@H](CC[C@H]1OC(CO)[C@H](O)[C@H](O)C1O)C(=O)NCC(=O)NCC(=O)N[C@@H](CC[C@H]1OC(CO)[C@H](O)[C@H](O)C1O)C(=O)NCC(=O)NCC(=O)N[C@@H](CC[C@H]1OC(CO)[C@H](O)[C@H](O)C1O)C(=O)NCC(=O)NCC(=O)NCC(=O)O (some centres unmarked) [analog 2] | potent inhibitors of ice recrystallization | do not exhibit TH activity |  |  | 
2 |  | N[C@@H](CCCNC(=O)C[C@H]1OC(CO)[C@H](O)[C@H](O)C1O)C(=O)NCC(=O)NCC(=O)N[C@@H](CCCNC(=O)C[C@H]1OC(CO)[C@H](O)[C@H](O)C1O)C(=O)NCC(=O)NCC(=O)N[C@@H](CCCNC(=O)C[C@H]1OC(CO)[C@H](O)[C@H](O)C1O)C(=O)NCC(=O)NCC(=O)N[C@@H](CCCNC(=O)C[C@H]1OC(CO)[C@H](O)[C@H](O)C1O)C(=O)NCC(=O)NCC(=O)NCC(=O)O (some centres unmarked) [analog 1] (H-[Orn](X1)GG[Orn](X1)GG[Orn](X1)GG[Orn](X1)GGG-OH) | potent inhibitors of ice recrystallization | do not exhibit TH activity | as effective as a 2.5% solution of DMSO |  | 
3 | poor solubilities | CCCCCCCCNC(=O)[C@H](O)[C@@H](O)[C@@H](O)[C@H](O)CO [compound 6, N-octyl-D-galactonamide] |  |  |  | do not exhibit this activity | only moderate
4 | poor solubilities | CCCCCCCCNC(=O)[C@H](O)[C@@H](O)[C@H](O)[C@H](O)CO [compound 5, N-octyl-D-gluconamide] |  |  |  | do not exhibit this activity | potent
